Measured values taken from patent publication US8609710B2, “Cycloalkyl-substituted imidazole derivative” (Daiichi Sankyo Company, Limited, priority 2010, dated 2013).
Structures can show the parent of a compound that is named as a salt.

Tested on: normal human plasma
Assay: Fibrinolysis enhancing activity by measurement of time of plasma clot lysis
Format: biochemical
Settings: normal human plasma with tPA; concentration that achieves 50% of 1/2 LT
Protocol: To a 96-well plate, 20 μL/well HBS, 50 μL/well normal human plasma, 10 μL/well compound solution (the compound solution was prepared by dissolving the compound in HBS, followed by serial dilution with this buffer), and 10 μL/well tPA (Activacin (Kyowa Hakko Kirin Co., Ltd.) was adjusted to 600,000 U/mL with a lysis solution included therein, followed by dilution with HBS) were added, and the mixture was stirred. Then, 10 μL/well reaction solution A (13.8 U/mL human thrombin, 170 mM CaCl2, and 0.9 U/mL thrombomodulin) was added thereto, and the mixture was stirred again. The absorbance at 405 nm was measured using a plate reader at 30-second intervals, with the temperature kept at 37° C. to measure the extent of coagulation. […] A concentration that achieves 50% of 1/2 LT was calculated as EC50 from the relationship between the concentration of the test substance and 1/2 LT. Compound A (compound of Example 7 in the pamphlet of International Publication No. WO 2002/014285) was used as a control.

| Compound | EC50 [nM] |
| --- | --- |
| C[C@H]1CC[C@H](n2cnc(C[C@H](CCCN)C(=O)O)c2)CC1 [15(2S form), (2S)-5-Amino-2-{[1-(trans-4-methylcyclohexyl)-1H-imidazol-4-yl]methyl}valeric acid] | 12 |

Molecular target: TAFIa (Homo sapiens (Human), UniProt Q96IY4)
Assay: Determination of TAFIa enzyme inhibitory activity
Format: biochemical
Settings: substrate furylacryloyl-alanyl-lysine (FAAK), absorbance at 330 nm
Protocol: HEPES buffered saline (20 mM HEPES, 150 mM NaCl, pH 7.4; hereinafter, referred to as HBS) was used in the preparation of a reaction solution. To 12 μL of a 250 μg/mL TAFI solution, 30 μL of an HBS solution containing 4 U/mL human thrombin, 12 U/mL rabbit lung thrombomodulin, and 12 mM CaCl2 was added, and the mixture was gently stirred. Then, TAFI was activated at room temperature. Ten minutes later, thrombin was neutralized by the addition of 10 μL of 100 μM PPACK (thrombin inhibitor) to terminate the activation of TAFI. The formed TAFIa was stored in ice and diluted immediately before use in determination with 2050 μL of an HBS solution containing BSA (bovine serum albumin) adjusted to 0.1% in terms of the final concentration.
A test substance was dissolved in HBS to prepare a 10-fold dilution series of evaluation concentrations. 80 μl, of the TAFIa solution and 10 μL of the test substance were added to each well of a 96-well plate and mixed by shaking for 10 minutes. 10 μL, of furylacryloyl-alanyl-lysine (FAAK) adjusted to 5 mg/mL was added to each well, and the change in the absorbance of this mixed solution at 330 nm was read for 30 minutes to determine the degradation rate of the substrate.
The degradation rate of the substrate in each well was applied to a standard curve prepared using the dilution series of the TAFIa solution to calculate TAFIa activity. The 50% inhibitory concentration (IC50) was calculated based on the correlation between the concentration of the test compound and the TAFIa activity. Compound A (compound of Example 7 in the pamphlet of International Publication No. WO 2002/014285) was used as a control.

TAFIa, sequence (Q96IY4 115-423): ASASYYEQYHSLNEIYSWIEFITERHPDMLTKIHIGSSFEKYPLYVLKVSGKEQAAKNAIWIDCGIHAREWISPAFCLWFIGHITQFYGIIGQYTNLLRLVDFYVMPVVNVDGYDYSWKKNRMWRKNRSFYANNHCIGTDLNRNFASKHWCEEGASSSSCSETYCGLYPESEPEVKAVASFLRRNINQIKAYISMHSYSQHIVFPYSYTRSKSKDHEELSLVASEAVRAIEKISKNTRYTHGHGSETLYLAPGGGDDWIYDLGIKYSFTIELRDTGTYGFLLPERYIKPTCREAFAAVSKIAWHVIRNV

| Compound | IC50 [nM] |
| --- | --- |
| C[C@H]1CC[C@H](n2cnc(C[C@@H](CCCN)C(=O)O)c2)CC1 [15(2R form), (2R)-5-Amino-2-{[1-(trans-4-methylcyclohexyl)-1H-imidazol-4-yl]methyl}valeric acid] | > 100 |
| C[C@@H](CN)C[C@@H](Cc1cn([C@H]2CC[C@H](C)CC2)cn1)C(=O)O [35(2S,4R form), (2S,4R)-5-Amino-4-methyl-2-{[1-(trans-4-methylcyclohexyl)-1H-imidazol-4-yl]methyl}valeric acid] | 5.1 |
| CCC1CC(n2cnc(CC(CCCN)C(=O)O)c2)C1 (stereo not shown) [Example 4, 5-Amino-2-{[1-(3-ethylcyclobutyl)-1H-imidazol-4-yl]methyl}valeric acid] | 14 |
| NCCCC(Cc1cn([C@@H]2CC3CCC2C3)cn1)C(=O)O (stereo partly drawn) [Example 11, 5-Amino-2-({1-[exo-bicyclo[2.2.1]hept-2-yl]-1H-imidazol-4-yl}methyl)valeric acid] | 14 |
| CC[C@H]1CC[C@H](n2cnc(CC(CCCN)C(=O)O)c2)CC1 (stereo partly drawn) [Example 3, 5-Amino-2-{[1-(trans-4-ethylcyclohexyl)-1H-imidazol-4-yl]methyl}valeric acid] | 8.8 |
| C[C@H]1CC[C@H](n2cnc(CC(C(=O)O)N3CC[C@H](N)C3)c2)CC1 (stereo partly drawn) [Example 26, 2-[(3S)-3-Aminopyrrolidin-1-yl]-3-[1-(trans-4-methylcyclohexyl)-1H-imidazol-4-yl]propionic acid] | 21 |
| NCCCC(Cc1cn([C@H]2CC[C@H](Oc3ccncc3)CC2)cn1)C(=O)O (stereo partly drawn) [Example 38, 5-Amino-2-({1-[trans-4-(pyridin-4-yloxy)cyclohexyl]-1H-imidazol-4-yl}methyl)valeric acid hydrochloride] | 9.8 |
| C[C@H]1CC[C@H](n2cnc(C[C@H](CCCN)C(=O)O)c2)CC1 [15(2S form), (2S)-5-Amino-2-{[1-(trans-4-methylcyclohexyl)-1H-imidazol-4-yl]methyl}valeric acid] | 7.8 |
| C[C@H]1CC[C@H](n2cnc(C[C@H](CCCN)C(=O)O)c2)CC1 [Example 40, (2S)-5-Amino-2-{[1-(trans-4-methylcyclohexyl)-1H-imidazol-4-yl]methyl}valeric acid p-toluenesulfonate anhydrate] | 2.6 |
| CCC(CN)CC(Cc1cn([C@H]2CC[C@H](C)CC2)cn1)C(=O)O (stereo partly drawn) [Example 36, 4-(Aminomethyl)-2-{[1-(trans-4-methylcyclohexyl)-1H-imidazol-4-yl]methyl}hexanoic acid hydrochloride] | 10 |
| NCCCC(Cc1cn([C@H]2CC[C@H](O)CC2)cn1)C(=O)O (stereo partly drawn) [Example 7, 5-Amino-2-{[1-(trans-4-hydroxycyclohexyl)-1H-imidazol-4-yl]methyl}valeric acid] | 26 |
| C[C@@H](CN)C[C@H](Cc1cn([C@H]2CC[C@H](C)CC2)cn1)C(=O)O [35(2R,4R form), (2R,4R)-5-Amino-4-methyl-2-{[1-(trans-4-methylcyclohexyl)-1H-imidazol-4-yl]methyl}valeric acid] | > 100 |
| NCCCC(Cc1cn([C@H]2CC[C@@H](O)CC2)cn1)C(=O)O (stereo partly drawn) [Example 37, 5-Amino-2-{[1-(cis-4-hydroxycyclohexyl)-1H-imidazol-4-yl]methyl}valeric acid] | 19 |
| NCCCC(Cc1cn(C2CCCCC2)cn1)C(=O)O (stereo not shown) [Example 1, 5-Amino-2-[(1-cyclohexyl-1H-imidazol-4-yl)methyl]valeric acid] | 21 |
| C[C@H](CN)C[C@H](Cc1cn([C@H]2CC[C@H](C)CC2)cn1)C(=O)O [34(2R,4S form), (2R,4S)-5-Amino-4-methyl-2-{[1-(trans-4-methylcyclohexyl)-1H-imidazol-4-yl]methyl}valeric acid] | 34 |
| CC1(O)CCC(n2cnc(CC(CCCN)C(=O)O)c2)CC1 (stereo not shown) [Example 8, 5-Amino-2-{[1-(4-hydroxy-4-methylcyclohexyl)-1H-imidazol-4-yl]methyl}valeric acid] | 19 |
| NCCCC(Cc1cn([C@H]2CC3CCC2C3)cn1)C(=O)O (stereo partly drawn) [Example 12, 5-Amino-2-([1-[endo-bicyclo[2.2.1]hept-2-yl]-1H-imidazol-4-yl]methyl)valeric acid] | 25 |
| C[C@H](CN)OC(Cc1cn([C@H]2CC[C@H](C)CC2)cn1)C(=O)O (stereo partly drawn) [Example 25, 2-[(1R)-2-Amino-1-methylethoxy]-3-[1-(trans-4-methylcyclohexyl)-1H-imidazol-4-yl]propionic acid] | 7 |
| CC1CC(n2cnc(CC(CCCN)C(=O)O)c2)C1 (stereo not shown) [Example 5, 5-Amino-2-{[1-(3-methylcyclobutyl)-1H-imidazol-4-yl]methyl}valeric acid] | 36 |
| NCCCC(Cc1cn(C2C3CC4CC(C3)CC2C4)cn1)C(=O)O (stereo not shown) [Example 13, 2-[(1-Adamantan-2-yl-1H-imidazol-4-yl)methyl]-5-aminovaleric acid] | 12 |
| CC1CCCC(n2cnc(CC(CCCN)C(=O)O)c2)C1 (stereo not shown) [Example 9, 5-Amino-2-{[1-(3-methylcyclohexyl)-1H-imidazol-4-yl]methyl}valeric acid] | 18 |
| NCCCC(Cc1cn([C@H]2CC[C@H](Oc3ccccc3)CC2)cn1)C(=O)O (stereo partly drawn) [Example 14, 5-Amino-2-{[1-(trans-4-phenoxycyclohexyl)-1H-imidazol-4-yl]methyl}valeric acid] | 13 |
| C[C@H]1CC[C@H](n2cnc(CC(CCCN)C(=O)O)c2)CC1 (stereo partly drawn) [Example 2, 5-Amino-2-{[1-(trans-4-methylcyclohexyl)-1H-imidazol-4-yl]methyl}valeric acid] | 8.3 |
| NCCCC(Cc1cn(C2CCCCCC2)cn1)C(=O)O (stereo not shown) [Example 10, 5-Amino-2-[(1-cycloheptyl-1H-imidazol-4-yl)methyl]valeric acid] | 21 |
| NCCCC(Cc1cn([C@@H]2C[C@H]3C[C@H]3C2)cn1)C(=O)O (mixture of isomers) [Example 6, (2RS)-5-Amino-2-({1-[(1R,3s,5S)-bicyclo[3.1.0]hexan-3-yl]-1H-imidazol-4-yl}methyl)valeric acid] | 21 |
| C[C@H]1CC[C@@H](n2cnc(CC(CCCN)C(=O)O)c2)CC1 (stereo partly drawn) [Example 39, 5-Amino-2-{[1-(cis-4-methylcyclohexyl)-1H-imidazol-4-yl]methyl}valeric acid] | 9.3 |
| C[C@H](CN)C[C@@H](Cc1cn([C@H]2CC[C@H](C)CC2)cn1)C(=O)O [34(2S,4S form), (2S,4S)-5-Amino-4-methyl-2-{[1-(trans-4-methylcyclohexyl)-1H-imidazol-4-yl]methyl}valeric acid] | 5.4 |
| CC1(C)CCCC(n2cnc(CC(CCCN)C(=O)O)c2)C1 (stereo not shown) [Example 33, 5-Amino-2-{[1-(3,3-dimethylcyclohexyl)-1H-imidazol-4-yl]methyl}valeric acid] | 7.5 |
| C[C@H]1CC[C@H](n2cnc(CC(OCCN)C(=O)O)c2)CC1 (stereo partly drawn) [Example 24, 2-(2-Aminoethoxy)-3-[1-(trans-4-methylcyclohexyl)-1H-imidazol-4-yl]propionic acid] | 8.1 |

Tested on: iron chloride-induced thrombus models
Assay: not given
Settings: mice, intravenous administration; cited from earlier work

| Compound | antithrombotic effect |
| --- | --- |
| potato carboxypeptidase inhibitor (PCI): TAFIa-inhibiting polypeptide consisting of 39 amino acids (QQHADPICNKPCKTHDDCSGAWFCQACWNSARTCGPYVG; UniProt P01075 1-39, looked up) | antithrombotic effect |
